Results as given in paper PMC6677754, “In silico design and optimization of selective membranolytic anticancer peptides” (Scientific Reports, 2019).
Peptide text beside a SMILES is read from it.

Key:
[1] = test system: human erythrocytes; assay: Hemolysis assay; assay type: cell-based; details: red cells of human, 1 h
Description: Human erythrocytes were freshly ordered at the Blutspende Zürich. Erythrocytes were washed 3 times with a […] phosphate buffered saline (PBS, Gibco, Thermo Fisher Scientific, Waltham, MA, USA) solution centrifuging at 800 g for 10 min or until the supernatant appeared clear to remove the blood plasma. A 5% v/v erythrocytes : PBS solution was prepared for direct use. For HC50 determination, peptides were dissolved in PBS at an intermediate concentration of 1 mM. A dilution series of the peptide from 200 to 6.25 μM was plated in a round-bottomed 96-well plate in triplicates, with a volume of 50 μL per well. PBS buffer and a solution of 0.1% Triton-X-100 (Fisher Chemical, Loughborough, UK) in PBS were employed as negative and positive controls, respectively. 50 μL of the 5% erythrocyte solution were added in each well and the plates were incubated at 37°C for 1 h. After this time, 100 μL PBS were added to each well and plates were centrifuged at 800 g for 10 min. 100 μL of the supernatant were transferred to a flat-bottomed 96-well plate and the absorbance was measured at 540 nm in a Tecan Infinity M1000 spectrophotometer plate reader. The hemolysis percentage was calculated, considering the absorbance values of the Triton and PBS wells as 100% and 0% hemolysis, respectively.
The resultant sigmoidal curves were analyzed with the drc22 R package using a log-logistic model with 3 fixed parameters to obtain the HC50 values. […]
NCI-60 screening procedure […]
Each peptide was tested in a 5-concentration assay, starting at 10^-4 M and diluting 10-fold to the lowest 10^-8 M concentration. The peptides were incubated for 48 h and the cell concentration was assayed by using the sulforhodamine B assay25 and optical density measurements. The growth inhibition (GI50) value24, measures the growth inhibitory power of the drug agent. The GI50 value is the concentration of the test drug for which the condition in Eq. S1 is met, where T is the optical density of the test well after a 48-h exposure to the peptide, T0 the optical density before applying the peptide drug and C the control optical density of a well where no peptide was applied.

[2] = test system: A549 lung adenocarcinoma cell line; assay: Cell viability assay (MTT); assay type: cell-based, human; details: Table S2; MTT, 24 h; mean ± sd; N = 2 independent measurements with six technical replicates each (Figs S6-S8); read-out: A549 EC50 /µM
Description: (§1) 10% fetal bovine serum and 1% penicillin-streptomycin (Thermo Fisher Scientific, Waltham, MA, USA). The cultures were kept at 37°C in a 5% CO2 atmosphere incubator (Thermo Fisher Scientific, Waltham, MA, USA) and split every two to three days to new culture flasks. Cells no older than 20 passages were used for experiments.
(§2) For splitting, the cell culture media was aspirated, the cells were washed with 0.01 M phosphate buffered saline (PBS, Gibco, Thermo Fisher Scientific, Waltham, MA, USA) and trypsin-EDTA (trypsin - ethylene diamine tetraacetic acid, Fisher scientific, UK) was added to the cell layer to detach them from the flask surface. After incubation for 2 min at 37°C, cells were resuspended with an equal volume of DMEM media and centrifuged at 310 g for 5 min at 4°C. After removal of the supernatant the cells were resuspended in DMEM cell media and split into new cell culture flasks at a 1/3 to 1/5 ratio.
(§3) Determination of the anticancer peptides half effective concentration (EC50) was performed by a 3-(4,5-dimethylthiazol-2-yl)-2,5-diphenyltetrazolium bromide (MTT) assay, as described elsewhere21. Briefly, […] were seeded in each well of a 96-well plate and left to adhere and […]
(§4) sulfoxide (DMSO, Fisher Scientific, UK) at an intermediate concentration of 1 mM. The peptides were then diluted in a 2-fold dilution series starting at 100 μM with DMEM culture media. Cells were incubated with the peptide solutions for 24 h. After this time, the cell media was removed and the cells were incubated for 1 h with a 0.5 mg mL−1 MTT solution to allow enough time for formazan crystal formation (Sigma Aldrich, Steinheim, Germany). The supernatant was removed and 100 μL of DMSO were added into each well to resuspend the formazan crystals.
(§5) After manually shaking the plates to completely dissolve the crystals, the absorbance was measured at 540 nm in a Tecan Infinity M1000 spectrophotometer. The cell viability was determined based on the quantification of the color intensity in each culture well, considering the absorbance obtained by the control media without peptides as a 100% survival. The resultant sigmoidal curves were analyzed with the drc22 R package using a log-logistic model

[3] = test system: MCF7 breast adenocarcinoma cell line; assay: Cell viability assay (MTT); assay type: cell-based, human; details: Table S2, 24 h, mean ± sd, N = 2 independent measurements with six technical replicates each (Figs S6-S8)
Description: as §1, §2, §3, §4, §5

[4] = test system: noncancer HDMEC primary cells (human dermal microvascular endothelial cells); assay: Cell viability assay (MTT); assay type: cell-based; details: Table S2; noncancer primary cells; MTT, 24 h; mean ± sd; N = 2 independent measurements with six technical replicates each (Figs S6-S8)
Description: as §1, §2, §3, §4, §5

Row | SMILES | Eryhtr. HC50 /µM [1] | EC50 [2] | EC50 [3] | EC50 [4]
1 | CC[C@H](C)[C@H](NC(=O)[C@H](CCCCN)NC(=O)CNC(=O)[C@@H](NC(=O)[C@H](Cc1ccc(O)cc1)NC(=O)[C@H](Cc1c[nH]cn1)NC(=O)[C@H](Cc1c[nH]c2ccccc12)NC(=O)[C@@H](NC(=O)[C@H](CCCCN)NC(=O)[C@H](CCCCN)NC(=O)[C@H](CC(C)C)NC(=O)[C@@H](NC(=O)[C@H](Cc1c[nH]cn1)NC(=O)[C@H](CCCNC(=N)N)NC(=O)[C@H](Cc1ccccc1)NC(=O)[C@H](CCCCN)NC(=O)[C@H](CCCCN)NC(=O)[C@H](Cc1ccc(O)cc1)NC(=O)[C@H](CC(C)C)NC(=O)[C@@H](N)CCCCN)[C@@H](C)CC)C(C)C)C(C)C)C(N)=O [Off3] (H-KLYKKFRHILKKVWHYVGKI-NH2) | 29 ± 3 µM | 14 ± 3 µM | 10 ± 1 µM | 10 ± 3 µM
2 | CC[C@H](C)[C@H](NC(=O)[C@H](CC(C)C)NC(=O)[C@@H](N)CCCNC(=N)N)C(=O)N[C@@H](CCCCN)C(=O)N[C@@H](CCCNC(=N)N)C(=O)N[C@@H](CC(C)C)C(=O)N[C@@H](CCCCN)C(=O)N[C@H](C(=O)N[C@@H](Cc1ccccc1)C(=O)N[C@H](C(=O)N[C@@H](CCCNC(=N)N)C(=O)N[C@@H](CCCCN)C(=O)N[C@H](C(=O)N[C@@H](Cc1c[nH]c2ccccc12)C(=O)N[C@@H](CCCCN)C(=O)N[C@@H](Cc1c[nH]c2ccccc12)C(=O)N[C@H](C(=O)NCC(=O)N[C@@H](Cc1c[nH]cn1)C(=O)N[C@@H](Cc1ccccc1)C(N)=O)C(C)C)[C@@H](C)O)C(C)C)[C@@H](C)O [Off7] (H-RLIKRLKTFVRKTWKWVGHF-NH2) | 95 ± 7 µM | 52 ± 2 µM | 39 ± 3 µM | 12 ± 3 µM
3 | CC[C@H](C)[C@H](NC(=O)[C@H](CC(C)C)NC(=O)[C@H](CCCCN)NC(=O)[C@H](Cc1ccccc1)NC(=O)[C@@H](NC(=O)[C@H](CCCCN)NC(=O)[C@H](CCCCN)NC(=O)[C@H](Cc1ccccc1)NC(=O)[C@H](Cc1c[nH]c2ccccc12)NC(=O)[C@@H](NC(=O)[C@H](CCCCN)NC(=O)[C@H](CC(C)C)NC(=O)[C@H](Cc1c[nH]cn1)NC(=O)[C@H](CCCNC(=N)N)NC(=O)[C@@H](NC(=O)[C@H](Cc1ccc(O)cc1)NC(=O)[C@@H](N)CCCCN)[C@@H](C)CC)[C@@H](C)O)C(C)C)C(=O)NCC(=O)N[C@@H](CCC(=O)O)C(=O)N[C@H](C(N)=O)C(C)C [Off4] (H-KYIRHLKTWFKKVFKLIGEV-NH2) | 20 ± 3 µM | 15 ± 0.1 µM | 11 ± 2 µM | 7.1 ± 0.1 µM
4 | CC[C@H](C)[C@H](NC(=O)[C@H](CCCCN)NC(=O)[C@H](CCCCN)NC(=O)[C@@H](NC(=O)[C@@H](NC(=O)[C@@H](N)CCC(N)=O)C(C)C)C(C)C)C(=O)N[C@@H](CCCNC(=N)N)C(=O)N[C@H](C(=O)N[C@@H](Cc1c[nH]c2ccccc12)C(=O)N[C@@H](Cc1ccc(O)cc1)C(=O)N[C@@H](Cc1c[nH]cn1)C(=O)N[C@@H](CCCCN)C(=O)N[C@@H](C)C(=O)N[C@@H](Cc1c[nH]c2ccccc12)C(=O)N[C@@H](Cc1c[nH]cn1)C(=O)N[C@H](C(=O)N[C@@H](CC(C)C)C(=O)NCC(=O)N[C@@H](CCCCN)C(=O)N[C@H](C(N)=O)C(C)C)C(C)C)[C@@H](C)O [Off2.2.1] (H-QVVKKIRTWYHKAWHVLGKV-NH2) | > 200 µM | > 100 µM | 76 ± 15 µM | 96 ± 7 µM
5 | CC[C@H](C)[C@H](NC(=O)[C@@H](NC(=O)[C@H](Cc1c[nH]cn1)NC(=O)[C@H](Cc1c[nH]c2ccccc12)NC(=O)[C@H](C)NC(=O)[C@H](CCCNC(=N)N)NC(=O)[C@H](CCC(=O)O)NC(=O)[C@H](Cc1ccc(O)cc1)NC(=O)[C@H](Cc1ccc(O)cc1)NC(=O)[C@@H](NC(=O)[C@H](Cc1c[nH]cn1)NC(=O)[C@H](CC(C)C)NC(=O)[C@H](Cc1c[nH]cn1)NC(=O)[C@H](CCCCN)NC(=O)[C@H](CC(C)C)NC(=O)[C@H](Cc1ccccc1)NC(=O)[C@@H](N)CCCNC(=N)N)[C@@H](C)O)C(C)C)C(=O)NCC(=O)N[C@@H](Cc1c[nH]cn1)C(=O)N[C@@H](CC(C)C)C(N)=O [Off2.8] (H-RFLKHLHTYYERAWHVIGHL-NH2) | > 200 µM | > 100 µM | > 100 µM | 2 ± 2 µM
